What all share (format): cell-based, human
Test [1] has as its system IP3R3. Put plainly: IP3R3 levels in U87 and A549 cells (immunoblotting). Particulars: U87 and A549 cells (no or low PTEN); GGTi-2418 for 16 h. (A western blot detects proteins with antibodies after separation by electrophoresis.)
In a further test the test system is FBXL2. Put plainly: Live-cell imaging of GFP-tagged FBXL2 localization in HeLa cells. Particulars: HeLa cells transfected with GFP-tagged FBXL2; GGTi-2418 15 μM for 16 h. The protocol:
FIGS. 6A, 6B, 6C, 6D, 6E, 6F, 6G, and 6H that the degradation of IP3R3 is dependent on FBXL2 localization to cell membranes and on the segregase activity of p97. […] Live cell imaging was carried out with an LSM510 confocal microscope using a 63× objective. Scale bars, 10 μm. […] Cells were subsequently harvested at the indicated times for immunoblotting. […] Cells were subsequently harvested for immunoblotting. This experiment was performed once. […] The bracket on the right marks a ladder of bands which, presumably, are ubiquitinated species of IP3R3 that are not degraded when p97 is inhibited. […] Cells were subsequently stimulated with medium containing serum and harvested at the indicated time points for immunoblotting. […] Error bars indicate s.e.m. […] Thus, we propose that, after its FBXL2-mediated ubiquitination, IP3R3 is extracted from cell membranes by the segregase activity of p97 to be degraded by the proteasome. […] 24 h post-transfection, cells were treated with MG132 for 3 h before harvesting for immunoprecipitation and immunoblotting as indicated. This experiment was performed twice. […] After immunopurification with an anti-Flag resin, in vitro ubiquitination of IP3R3 was performed in the presence of UAE1, Ubch3, Ubch5 and ubiquitin (Ub). […] Samples were analysed by immunoblotting with the indicated antibodies. […]

Test [2] concerns IP3R3. Put plainly: IP3R3 stability by immunoblotting in NHFs, HeLa and HEK293T cells incubated with GGTi-2418. The following applies: HeLa, HEK293T cells, 10-15 μM GGTi-2418, NHFs 30 h then cycloheximide and ATP. On the procedure: FIGS. 6A, 6B, 6C, 6D, 6E, 6F, 6G, and 6H that the degradation of IP3R3 is dependent on FBXL2 localization to cell membranes and on the segregase activity of p97. […] Live cell imaging was carried out with an LSM510 confocal microscope using a 63× objective. Scale bars, 10 μm. […] Cells were subsequently harvested at the indicated times for immunoblotting. […] Cells were subsequently harvested for immunoblotting. This experiment was performed once. […] The bracket on the right marks a ladder of bands which, presumably, are ubiquitinated species of IP3R3 that are not degraded when p97 is inhibited. […] Cells were subsequently stimulated with medium containing serum and harvested at the indicated time points for immunoblotting. […] Error bars indicate s.e.m. […] Thus, we propose that, after its FBXL2-mediated ubiquitination, IP3R3 is extracted from cell membranes by the segregase activity of p97 to be degraded by the proteasome. […] 24 h post-transfection, cells were treated with MG132 for 3 h before harvesting for immunoprecipitation and immunoblotting as indicated. This experiment was performed twice. […] Samples were analysed by immunoblotting with the indicated antibodies. […]
Cell culture and transfections. […] All cells grown in culture were periodically monitored for mycoplasma contamination. […]

For test [3], the system named is IP3R3. Put plainly: Serum-mediated degradation of IP3R3 in serum-starved, serum re-stimulated NHFs (immunoblotting). Particulars: NHFs serum-starved 72 h, re-stimulated with serum; 10 μM MG132, 10 μM Eer1. On the procedure:
24 h post-transfection, cells were treated with MG132 for 3 h before harvesting for immunoprecipitation and immunoblotting as indicated. WCL, whole-cell lysate from untransfected cells. […] After harvesting, cells were lysed, and cell membranes (CM) were isolated and immunoprecipitated with either a normal mouse IgG or an anti-Flag antibody. Subsequently, immunoprecipitates were analysed by immunoblotting as indicated. The results of these experiments (n=2) indicate that FBXL2 is incorporated into a complete SCF ligase that binds its substrate(s) at cellular membranes. […] After harvesting, cells were lysed and cytoplasmic (CYTO) and cell membrane (CM) fractions were isolated and analysed by immunoblotting as indicated. Actin and calnexin are used as markers for cytoplasmic and cell membrane fractions, respectively. This experiment was performed twice. […] 24 h post-transfection, where indicated, cells were treated with MG132 for 3 h before harvesting for immunoprecipitation and immunoblotting. Ned. CUL1, neddylated CUL1. […] The experiment was performed in the presence or absence of MG132 as indicated. Whole-cell lysates were immunoblotted as indicated. The asterisk indicates a non-specific band. This experiment was performed twice. […] P values were calculated by unpaired t-test. Error bars indicate s.e.m. […] Error bars indicate s.e.m. The values represent the ratios between FBXL2 and GAPDH mRNAs. […] Cells were subsequently stimulated with medium containing serum and harvested at the indicated times for immunoblotting. […] Error bars indicate s.e.m. […] Cells were subsequently stimulated with medium containing serum and harvested at the indicated time points for immunoblotting. […] Error bars indicate s.e.m. […] Exon 2 and exon 3 refer to the human FBXL2 gene in NC_000003.12 (GRCh38.p7 (Gene Bank ID: 3129728)). […]
FIGS. 6A, 6B, 6C, 6D, 6E, 6F, 6G, and 6H that the degradation of IP3R3 is dependent on FBXL2 localization to cell membranes and on the segregase activity of p97. […] Samples were analysed by immunoblotting with the indicated antibodies. […]

Test [4] deals with IP3R3. Put plainly: IP3R3 levels and FBXL2 binding in HEK293T cells transfected with Flag-tagged FBXL2 constructs. The protocol: 24 h post-transfection, cells were treated with MG132 for 3 h before harvesting for immunoprecipitation and immunoblotting as indicated. WCL, whole-cell lysate from untransfected cells. […] After harvesting, cells were lysed, and cell membranes (CM) were isolated and immunoprecipitated with either a normal mouse IgG or an anti-Flag antibody. Subsequently, immunoprecipitates were analysed by immunoblotting as indicated. The results of these experiments (n=2) indicate that FBXL2 is incorporated into a complete SCF ligase that binds its substrate(s) at cellular membranes. […] After harvesting, cells were lysed and cytoplasmic (CYTO) and cell membrane (CM) fractions were isolated and analysed by immunoblotting as indicated. Actin and calnexin are used as markers for cytoplasmic and cell membrane fractions, respectively. This experiment was performed twice. […] 24 h post-transfection, where indicated, cells were treated with MG132 for 3 h before harvesting for immunoprecipitation and immunoblotting. Ned. CUL1, neddylated CUL1. […] The experiment was performed in the presence or absence of MG132 as indicated. Whole-cell lysates were immunoblotted as indicated. The asterisk indicates a non-specific band. This experiment was performed twice. […] P values were calculated by unpaired t-test. Error bars indicate s.e.m. […] Error bars indicate s.e.m. The values represent the ratios between FBXL2 and GAPDH mRNAs. […]

Each structure is given as a SMILES string. Entries after “also recorded” stand apart in the source; their conditions may differ. Peptide text beside a SMILES is read from it. * marks the point of attachment. Cbz = O=C(OCc1ccccc1)*

Regarding `Cc1nc[nH]c1CN1CCN(C(=O)N[C@@H](CC(C)C)C(=O)O)[C@@H](Cc2ccccc2)C1=O` [GGTi-2418], the IP3R3 levels result with IP3R3 [1] is recorded as “IP3R3 levels increased”. Moreover, the FBXL2 localization entry with FBXL2 is listed as “delocalized FBXL2; also recorded: delocalizes FBXL2 from membranes”. In addition, the IP3R3 stability entry in the test on IP3R3 [2] was “stabilizes IP3R3”.
Turning to `CC(C)C[C@@H](C=O)NC(=O)[C@H](CC(C)C)NC(=O)[C@H](CC(C)C)NC(=O)OCc1ccccc1` [MG132] (Cbz-Leu-Leu-Leu-aldehyde), the “IP3R3 levels / degradation after serum re-stimulation” value with IP3R3 [3] is recorded as “much less”. Moreover, the “FBXL2-induced decrease in the levels of IP3R3” value with IP3R3 [4] (HEK293T cells expressing wild-type FBXL2, MG132) is “this decrease was rescued by MG132 treatment”. Further, the “difference in IP3R3 binding between FBXL2(ΔF-box) and wild-type FBXL2” value in the test on IP3R3 [4] (HEK293T cells, MG132 for 3 h) is recorded as “this difference was abolished by MG132 treatment”.

Values taken from patent US11583525B2, “Geranylgeranyltransferase I inhibitor for treatment of a PTEN defective cancer” (H. LEE MOFFITT CANCER CENTER AND RESEARCH INSTITUTE, INC., priority 2017, dated 2023).
